From ChEMBL document CHEMBL1142950, “Zooxanthellamide D, a polyhydroxy polyene amide from a marine dinoflagellate, and chemotaxonomic perspective of the Symbiodinium polyols” (J Nat Prod, 2007)
Calls of active or inactive are those of the source. The rule behind the calls is not given here.

What was measured:
Phytophthora capsici = assay: Antifungal activity against Phytophthora capsici by paper disk assay; format: functional, organism-based
A-431 = assay: Cytotoxicity against human A431 cells; format: cell-based
[1] = Cytotoxicity against human Nakata cells; format: cell-based

C=CC(=C)CC(=C)/C(C)=C/CC/C=C/C=C(\C)C[C@@H]1O[C@@H](C(O)C(O)C(O)/C(C)=C/C=C/CNC(=O)/C=C/C=C/C(O)CC(O)C(O)C[C@H]2O[C@@H]([C@H]3C[C@H](O)[C@H](O)[C@@](C)(CO)O3)[C@H](O)C(O)[C@@H]2O)[C@@H](O)[C@H](O)[C@H]1O (stereo partly drawn) [ZOOXANTHELLAMIDE D]
Activity (Phytophthora capsici): inactive | IC50 (A-431): 4.5 µM | IC50 [1]: 6.6 µM
